The target of experiment [1] is T1, MTHFD1 recombinant human enzyme (Homo sapiens, UniProt P11586).
T1 sequence (P11586 2-291 limits assumed): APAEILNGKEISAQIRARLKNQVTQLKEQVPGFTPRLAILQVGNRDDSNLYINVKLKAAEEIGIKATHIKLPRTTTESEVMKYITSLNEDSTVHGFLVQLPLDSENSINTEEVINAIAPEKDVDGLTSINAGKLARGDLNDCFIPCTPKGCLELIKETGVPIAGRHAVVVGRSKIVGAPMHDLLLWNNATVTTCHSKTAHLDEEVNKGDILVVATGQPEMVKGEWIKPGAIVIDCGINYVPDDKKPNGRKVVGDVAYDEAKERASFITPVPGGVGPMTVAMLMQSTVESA
The experiment in a line: MTHFD1 inhibition assay (NAD(P)H-Glo luminescence). The conditions noted are these: MTHFD1 IC50, recombinant human enzyme 200 nM, NADP, band.

Experiment [2] addresses T2, MTHFD2 recombinant human enzyme (Homo sapiens, UniProt P13995).
T2 sequence (P13995 36-350): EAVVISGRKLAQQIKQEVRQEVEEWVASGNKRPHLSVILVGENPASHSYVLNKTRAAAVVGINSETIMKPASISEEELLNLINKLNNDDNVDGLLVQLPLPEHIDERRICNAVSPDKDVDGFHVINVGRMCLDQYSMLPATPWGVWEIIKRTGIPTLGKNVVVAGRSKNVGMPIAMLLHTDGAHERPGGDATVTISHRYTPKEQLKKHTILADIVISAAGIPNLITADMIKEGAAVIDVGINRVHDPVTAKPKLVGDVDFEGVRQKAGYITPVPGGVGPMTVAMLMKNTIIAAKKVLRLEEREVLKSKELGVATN
The experiment in a line: MTHFD2 inhibition assay (NAD(P)H-Glo luminescence).

The mark [3] stands for this setting: selectivity of MTHFD2 inhibition over MTHFD1, band.

A word on the IC50: it is the concentration that gives 50% inhibition. As for `COC[C@H]1CN(c2cc(C)c3c4c(c(=O)oc3c2C)CN(C(=O)c2ccc(C(=O)NS(=O)(=O)C3(C)CC3)c(N(C)C3CC3)c2)CC4)CCN1C` [Example 83, (R)-2-(cyclopropyl(methyl)amino)-4-(8-(3-(methoxymethyl)-4-methylpiperazin-1-yl)-7,10-dimethyl-5-oxo-1,3,4,5-tetrahydro-2H-chromeno[3,4-c]pyridine-3-carbonyl)-N-((1-methylcyclopropyl)sulfonyl)benzamide], the IC50 lay within 10 to 100 nM in experiment [1] and 1 to 10 nM in experiment [2]. For the same molecule, the “MTHFD1/MTHFD2 IC50 ratio” value in experiment [2] (mean value after increased number of repeats, band) is “H* (>9.0 to 30)”; in experiment [2] (setting [3]), “G (^ 3 to 9.0)”.

`COC[C@H]1CN(c2cc(C)c3c4c(c(=O)oc3c2C)CN(C(=O)c2ccc(C(=O)NS(=O)(=O)N(C)C)c(N(C)C3CC3)c2)CC4)CCN1C` [Example 84, (R)-2-(cyclopropyl(methyl)amino)-N-(N,N-dimethylsulfamoyl)-4-(8-(3-(methoxymethyl)-4-methylpiperazin-1-yl)-7,10-dimethyl-5-oxo-1,3,4,5-tetrahydro-2H-chromeno[3,4-c]pyridine-3-carbonyl)benzamide]: the IC50 fell in the range of 10 to 100 nM in experiment [1] and 1 to 10 nM in experiment [2]. In addition, the “MTHFD1/MTHFD2 IC50 ratio” value in experiment [2] (setting [3]) is given as “G (^ 3 to 9.0)”.

For `COC[C@H]1CN(c2cc(C)c3c4c(c(=O)oc3c2C)CN(C(=O)c2ccc(C(=O)NS(=O)(=O)N(C)C)c(OC3CCC(F)(F)CC3)c2F)CC4)CCN1C` [Example 85, (R)-2-((4,4-difluorocyclohexyl)oxy)-N-(N,N-dimethylsulfamoyl)-3-fluoro-4-(8-(3-(methoxymethyl)-4-methylpiperazin-1-yl)-7,10-dimethyl-5-oxo-1,3,4,5-tetrahydro-2H-chromeno[3,4-c]pyridine-3-carbonyl)benzamide], the concentration for half-maximal inhibition (IC50) in experiment [1] and in experiment [2] was 1 to 10 nM throughout. In addition, in experiment [2] (setting [3]), the “MTHFD1/MTHFD2 IC50 ratio” value is on record as “F (<3)”.

On to `COC[C@H]1CN(c2cc(C)c3c4c(c(=O)oc3c2C)CN(C(=O)c2ccc(C(=O)NS(=O)(=O)C3(C)CC3)c(OC3CCC(F)(F)CC3)c2F)CC4)CCN1C` [Example 86, (R)-2-((4,4-difluorocyclohexyl)oxy)-3-fluoro-4-(8-(3-(methoxymethyl)-4-methylpiperazin-1-yl)-7,10-dimethyl-5-oxo-1,3,4,5-tetrahydro-2H-chromeno[3,4-c]pyridine-3-carbonyl)-N-((1-methylcyclopropyl)sulfonyl)benzamide], for which the IC50 in experiment [1] and in experiment [2] was 10 to 100 nM throughout. Also, in experiment [2] (setting [3]), the “MTHFD1/MTHFD2 IC50 ratio” value is reported as “F (<3)”.

Consider `COC[C@H]1CN(c2cc(C)c3c4c(c(=O)oc3c2C)CN(C(=O)c2ccc(C(=O)NS(=O)(=O)C3(C)CC3)c(N3CCC(C)(C)C3)c2)CC4)CCN1C` [Example 87, (R)-2-(3,3-dimethylpyrrolidin-1-yl)-4-(8-(3-(methoxymethyl)-4-methylpiperazin-1-yl)-7,10-dimethyl-5-oxo-1,3,4,5-tetrahydro-2H-chromeno[3,4-c]pyridine-3-carbonyl)-N-((1-methylcyclopropyl)sulfonyl)benzamide], for which the IC50 in experiment [1] fell in the range of 10 to 100 nM; in experiment [2], 1 to 10 nM. In experiment [2] (setting [3]), the “MTHFD1/MTHFD2 IC50 ratio” value was “G (^ 3 to 9.0)”.

Consider `COC[C@H]1CN(c2cc(C)c3c4c(c(=O)oc3c2C)CN(C(=O)c2ccc(C(=O)NS(=O)(=O)N(C)C)c(N3CCC(C)(C)C3)c2)CC4)CCN1C` [Example 88, (R)-2-(3,3-dimethylpyrrolidin-1-yl)-N-(N,N-dimethylsulfamoyl)-4-(8-(3-(methoxymethyl)-4-methylpiperazin-1-yl)-7,10-dimethyl-5-oxo-1,3,4,5-tetrahydro-2H-chromeno[3,4-c]pyridine-3-carbonyl)benzamide], for which the half-inhibitory concentration (IC50) in experiment [1] and in experiment [2] was 1 to 10 nM each time. Besides, the “MTHFD1/MTHFD2 IC50 ratio” value in experiment [2] (setting [3]) was “F (<3)”.

Turning to `COC[C@H]1CN(c2cc(C)c3c4c(c(=O)oc3c2C)CN(C(=O)c2ccc(C(=O)NS(=O)(=O)N(C)C)c(N3CCC3)c2)CC4)CCN1C` [Example 89, (R)-2-(azetidin-1-yl)-N-(N,N-dimethylsulfamoyl)-4-(8-(3-(methoxymethyl)-4-methylpiperazin-1-yl)-7,10-dimethyl-5-oxo-1,3,4,5-tetrahydro-2H-chromeno[3,4-c]pyridine-3-carbonyl)benzamide], the half-inhibitory concentration (IC50) in experiment [1] and in experiment [2] was 1 to 10 nM each time. For the same molecule, the “MTHFD1/MTHFD2 IC50 ratio” value in experiment [2] (setting [3]) was “F (<3)”.

`COC[C@H]1CN(c2cc(C)c3c4c(c(=O)oc3c2C)CN(C(=O)c2ccc(C(=O)NS(=O)(=O)N(C)C)c(OC3C5CC6CC(C5)CC3C6)c2F)CC4)CCN1C` (stereo partly drawn) [Example 90, 2-((adamantan-2-yl)oxy)-N-(N,N-dimethylsulfamoyl)-3-fluoro-4-(8-((R)-3-(methoxymethyl)-4-methylpiperazin-1-yl)-7,10-dimethyl-5-oxo-1,3,4,5-tetrahydro-2H-chromeno[3,4-c]pyridine-3-carbonyl)benzamide]: the IC50 in experiment [1] and in experiment [2] was 10 to 100 nM throughout.

For the molecule `COC[C@H]1CN(c2cc(C)c3c4c(c(=O)oc3c2C)CN(C(=O)c2ccc(C(=O)NS(=O)(=O)C3(C)CC3)c(N3CCC3)c2)CC4)CCN1C` [Example 91, (R)-2-(azetidin-1-yl)-4-(8-(3-(methoxymethyl)-4-methylpiperazin-1-yl)-7,10-dimethyl-5-oxo-1,3,4,5-tetrahydro-2H-chromeno[3,4-c]pyridine-3-carbonyl)-N-((1-methylcyclopropyl)sulfonyl)benzamide], the IC50 in experiment [1] and in experiment [2] was 1 to 10 nM each time. For the same molecule, in experiment [2] (setting [3]), the “MTHFD1/MTHFD2 IC50 ratio” value was “G (^ 3 to 9.0)”.

Consider `COC[C@H]1CN(c2cc(C)c3c4c(c(=O)oc3c2C)CN(C(=O)c2ccc(C(=O)NS(=O)(=O)N3CCCC3)c(N3CCC(F)(F)C3)c2)CC4)CCN1C` [Example 92, (R)-2-(3,3-difluoropyrrolidin-1-yl)-4-(8-(3-(methoxymethyl)-4-methylpiperazin-1-yl)-7,10-dimethyl-5-oxo-1,3,4,5-tetrahydro-2H-chromeno[3,4-c]pyridine-3-carbonyl)-N-(pyrrolidin-1-ylsulfonyl)benzamide], for which the half-maximal inhibitory concentration (IC50) in experiment [1] lay within 10 to 100 nM; in experiment [2], 1 to 10 nM. Also, the “MTHFD1/MTHFD2 IC50 ratio” value in experiment [2] (setting [3]) was “H (>9.0 to 30)”.

Consider `COC[C@H]1CN(c2cc(C)c3c4c(c(=O)oc3c2C)CN(C(=O)c2cc(OC3CCC3)c(C(=O)NS(=O)(=O)N(C)C)cc2F)CC4)CCN1C` [Example 93, (R)-2-cyclobutoxy-N-(N,N-dimethylsulfamoyl)-5-fluoro-4-(8-(3-(methoxymethyl)-4-methylpiperazin-1-yl)-7,10-dimethyl-5-oxo-1,3,4,5-tetrahydro-2H-chromeno[3,4-c]pyridine-3-carbonyl)benzamide], for which the IC50 in experiment [1] and in experiment [2] was 10 to 100 nM each time. For the same molecule, in experiment [2] (setting [3]), the “MTHFD1/MTHFD2 IC50 ratio” value is on record as “G (^ 3 to 9.0)”.

On to `COC[C@H]1CN(c2cc(C)c3c4c(c(=O)oc3c2C)CN(C(=O)c2ccc(C(=O)NS(=O)(=O)N3CCCC3)c(OC3C5CC6CC(C5)CC3C6)c2F)CC4)CCN1C` (stereo partly drawn) [Example 94, 2-((adamantan-2-yl)oxy)-3-fluoro-4-(8-((R)-3-(methoxymethyl)-4-methylpiperazin-1-yl)-7,10-dimethyl-5-oxo-1,3,4,5-tetrahydro-2H-chromeno[3,4-c]pyridine-3-carbonyl)-N-(pyrrolidin-1-ylsulfonyl)benzamide], for which the IC50 in experiment [1] and in experiment [2] was 10 to 100 nM each time. Also, the “MTHFD1/MTHFD2 IC50 ratio” value in experiment [2] (setting [3]) is “F (<3)”.

As to `COC[C@H]1CN(c2cc(C)c3c4c(c(=O)oc3c2C)CN(C(=O)c2ccc(C(=O)NS(=O)(=O)N3CCCC3)c(N3CC5CC5C3)c2F)CC4)CCN1C` (stereo partly drawn) [Example 95, 2-(3-azabicyclo[3.1.0]hexan-3-yl)-3-fluoro-4-(8-((R)-3-(methoxymethyl)-4-methylpiperazin-1-yl)-7,10-dimethyl-5-oxo-1,3,4,5-tetrahydro-2H-chromeno[3,4-c]pyridine-3-carbonyl)-N-(pyrrolidin-1-ylsulfonyl)benzamide], the IC50 in experiment [1] and in experiment [2] was 100 to 1000 nM each time. Besides, the “MTHFD1/MTHFD2 IC50 ratio” value in experiment [2] (setting [3]) is recorded as “F (<3)”.

Turning to `COC[C@H]1CN(c2cc(C)c3c4c(c(=O)oc3c2C)CN(C(=O)c2ccc(C(=O)NS(=O)(=O)N3CCCC3)c(N3CCCC3)c2)CC4)CCN1C` [Example 96, (R)-4-(8-(3-(methoxymethyl)-4-methylpiperazin-1-yl)-7,10-dimethyl-5-oxo-1,3,4,5-tetrahydro-2H-chromeno[3,4-c]pyridine-3-carbonyl)-2-(pyrrolidin-1-yl)-N-(pyrrolidin-1-ylsulfonyl)benzamide], the half-maximal inhibitory concentration (IC50) in experiment [1] and in experiment [2] was 1 to 10 nM each time. Also, the “MTHFD1/MTHFD2 IC50 ratio” value in experiment [2] (setting [3]) is on record as “G (^ 3 to 9.0)”.

Regarding `COC[C@H]1CN(c2cc(C)c3c4c(c(=O)oc3c2C)CN(C(=O)c2ccc(C(=O)NS(=O)(=O)N3CCCC3)c(N3C5CCC3CC5)c2F)CC4)CCN1C` [Example 97, (R)-2-(7-azabicyclo[2.2.1]heptan-7-yl)-3-fluoro-4-(8-(3-(methoxymethyl)-4-methylpiperazin-1-yl)-7,10-dimethyl-5-oxo-1,3,4,5-tetrahydro-2H-chromeno[3,4-c]pyridine-3-carbonyl)-N-(pyrrolidin-1-ylsulfonyl)benzamide], the IC50 in experiment [1] and in experiment [2] was 10 to 100 nM throughout. Moreover, the “MTHFD1/MTHFD2 IC50 ratio” value in experiment [2] (setting [3]) is “F (<3)”.

The values are drawn from patent publication US12662489B2 (Sitryx Therapeutics Limited, priority 2023, dated 2026).
